Source: ChEMBL document CHEMBL1201862, “PubChem BioAssay data set” (2004)
Active and inactive are the calls of the source.

Experiments:
[1] = biological target: FAD-linked sulfhydryl oxidase ALR (Homo sapiens, UniProt P55789); test: inhibitors of human ALR sulfhydryl oxidase, dose response, biochemical, H2O2 detection, luminescence, cherry-pick (AID 493248)
Large T antigen = Large T antigen (Simian virus 40, UniProt P03070); type: functional, Betapolyomavirus macacae;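 also: Confirmatory-stage PubChem screen for compounds that inhibit SV40 T antigen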
Chain of Large T antigen (P03070 whole entry): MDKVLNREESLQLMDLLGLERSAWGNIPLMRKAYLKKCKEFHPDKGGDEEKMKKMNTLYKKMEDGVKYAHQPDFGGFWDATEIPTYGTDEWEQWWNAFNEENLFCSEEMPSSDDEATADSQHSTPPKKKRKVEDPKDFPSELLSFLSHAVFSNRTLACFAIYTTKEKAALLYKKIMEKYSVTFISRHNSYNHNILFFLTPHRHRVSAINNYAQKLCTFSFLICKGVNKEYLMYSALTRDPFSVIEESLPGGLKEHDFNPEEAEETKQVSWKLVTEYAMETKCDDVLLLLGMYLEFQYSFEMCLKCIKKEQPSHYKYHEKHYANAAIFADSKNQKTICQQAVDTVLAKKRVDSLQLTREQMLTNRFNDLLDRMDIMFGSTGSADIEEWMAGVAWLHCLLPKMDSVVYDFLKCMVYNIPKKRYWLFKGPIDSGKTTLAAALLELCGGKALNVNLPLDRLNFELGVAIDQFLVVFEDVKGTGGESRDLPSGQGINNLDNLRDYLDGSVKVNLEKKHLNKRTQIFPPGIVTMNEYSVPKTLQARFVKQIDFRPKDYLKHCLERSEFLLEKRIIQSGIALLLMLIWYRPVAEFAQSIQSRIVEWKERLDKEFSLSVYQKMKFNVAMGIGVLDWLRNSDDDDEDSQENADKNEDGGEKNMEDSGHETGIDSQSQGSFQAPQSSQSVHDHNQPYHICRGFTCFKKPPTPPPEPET

[2] = Luminescence Cell-Based Dose Retest to Confirm Inhibitors of Cancer Stem Cells. [Related pubchem assays (depositor defined):AID2717, AID2721]; type: functional; settings: Homo sapiens
[3] = HEp-2 cell cytotoxicity, dose response, cytotoxicity control for RSV inhibitor project, HTS (AID 2410); type: functional; settings: human respiratory syncytial virus
[4] = cytotoxicity toward NIH3T3 fibroblasts, dose response, counter-screen, cell-based, ATP luminescence, mouse fibroblasts (AID 2010); type: functional;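 also: cells exposed to compound for about 90 hours before reading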
[5] = inhibitors of intracellular T. cruzi replication, confirmation, NIH3T3 host cells, beta-gal luminescence (AID 2044); type: functional, cell-based;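 also: intracellular parasites grown in NIH/3T3 mouse fibroblasts as host cells; luminescent beta-galactosidase reporter signal from transgenic T. cruzi replicating inside host cells; inhibitors lower the luminescence signal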
[6] = biological target: T1, Rac GTPase-activating protein 1 (Homo sapiens, UniProt Q9H0H5); test: MgcRacGAP GTPase-activating activity inhibitors, confirmation, biochemical, ADP Hunter fluorescence, primary and confirmatory (AID 624330); type: functional
T1 sequence (Q9H0H5 whole entry): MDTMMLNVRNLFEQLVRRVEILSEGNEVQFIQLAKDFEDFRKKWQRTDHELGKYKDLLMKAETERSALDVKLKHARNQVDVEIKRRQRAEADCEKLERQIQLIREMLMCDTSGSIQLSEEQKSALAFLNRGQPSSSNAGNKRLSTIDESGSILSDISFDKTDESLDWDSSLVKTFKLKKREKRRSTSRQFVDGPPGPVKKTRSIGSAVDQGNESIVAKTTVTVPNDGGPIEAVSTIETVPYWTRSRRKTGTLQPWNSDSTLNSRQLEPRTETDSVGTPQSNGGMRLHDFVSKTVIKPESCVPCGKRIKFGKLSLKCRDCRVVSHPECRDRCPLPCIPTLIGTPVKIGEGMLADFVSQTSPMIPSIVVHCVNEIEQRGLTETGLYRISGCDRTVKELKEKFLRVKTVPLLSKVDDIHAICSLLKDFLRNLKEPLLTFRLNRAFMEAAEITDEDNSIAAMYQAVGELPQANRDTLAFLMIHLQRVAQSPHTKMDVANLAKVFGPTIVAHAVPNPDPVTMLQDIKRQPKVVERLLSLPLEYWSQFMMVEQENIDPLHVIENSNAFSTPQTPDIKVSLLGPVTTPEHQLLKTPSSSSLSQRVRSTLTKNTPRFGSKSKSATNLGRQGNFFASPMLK

cells = type: functional
H4 = test: Luminescence Cell-Based Dose Response HTS to Identify Activators of 5'UTR Stem-Loop Driven Prion Protein mRNA Translation in H4 Neuroglioblastoma Cells. [Related pubchem assays: 1829 (Project Summary), 1814 (Primary HTS)]; type: functional; settings: Homo sapiens
[7] = Luminescence Cell-Based Dose Response HTS to Identify Activators of Luciferase Translation or Activity in H4 […] Cells. [Related pubchem assays: 1829 (Project Summary), 1814 (Primary HTS)]; type: functional
INS1 = test: beta cell apoptosis inhibitors, cytokine rescue, dose response, luminescence, retest (AID 449756); type: functional, cell-based; settings: Rattus norvegicus;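 also: cell death triggered by IL-1 beta plus TNF-alpha plus IFN-gamma mixture; protective hits raise ATP signal compared with cytokine alone wells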
[8] = biological target: T2, Heat shock factor protein 1 (Mus musculus, UniProt P38532); test: inhibition of MG132-induced HSE-luciferase signal, confirmation, cell-based, NIH3T3, luminescence, dose retest (AID 2382); type: functional;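 also: NIH3T3 fibroblasts with HSF1-driven luciferase reporter stressed by proteasome inhibitor MG132; luminescence from HSF1-driven luciferase expression after 8 hours of MG132 stress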
T2 sequence (P38532 whole entry): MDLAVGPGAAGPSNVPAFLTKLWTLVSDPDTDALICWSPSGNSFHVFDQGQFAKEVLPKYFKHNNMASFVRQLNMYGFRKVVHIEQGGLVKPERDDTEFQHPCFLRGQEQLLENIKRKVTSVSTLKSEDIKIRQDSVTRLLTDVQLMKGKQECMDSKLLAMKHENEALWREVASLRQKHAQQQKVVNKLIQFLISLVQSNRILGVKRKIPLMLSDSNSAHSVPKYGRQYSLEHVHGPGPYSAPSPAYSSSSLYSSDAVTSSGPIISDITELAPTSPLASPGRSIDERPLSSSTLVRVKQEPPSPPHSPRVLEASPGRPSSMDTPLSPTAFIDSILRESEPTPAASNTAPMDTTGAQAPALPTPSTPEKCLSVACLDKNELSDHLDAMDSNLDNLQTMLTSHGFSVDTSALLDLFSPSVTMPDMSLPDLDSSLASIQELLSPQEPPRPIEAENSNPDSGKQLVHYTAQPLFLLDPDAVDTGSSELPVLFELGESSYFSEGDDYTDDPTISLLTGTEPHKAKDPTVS

Cytochrome P450 2C9 = Cytochrome P450 2C9 (Homo sapiens, UniProt P11712)
Chain of Cytochrome P450 2C9 (P11712 whole entry): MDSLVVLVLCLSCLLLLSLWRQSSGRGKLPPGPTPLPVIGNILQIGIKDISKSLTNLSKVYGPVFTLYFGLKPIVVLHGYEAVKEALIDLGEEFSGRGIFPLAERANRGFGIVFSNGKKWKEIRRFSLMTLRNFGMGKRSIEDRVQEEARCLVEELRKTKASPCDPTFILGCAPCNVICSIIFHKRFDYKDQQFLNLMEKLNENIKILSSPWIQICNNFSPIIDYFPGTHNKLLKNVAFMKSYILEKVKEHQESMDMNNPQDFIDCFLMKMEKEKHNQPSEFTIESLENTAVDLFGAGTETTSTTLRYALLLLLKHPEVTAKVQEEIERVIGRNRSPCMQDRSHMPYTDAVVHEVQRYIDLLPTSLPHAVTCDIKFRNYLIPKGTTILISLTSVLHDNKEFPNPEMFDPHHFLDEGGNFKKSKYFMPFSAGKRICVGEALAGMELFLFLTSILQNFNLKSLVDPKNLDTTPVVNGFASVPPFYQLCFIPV

[9] = system: Streptococcus sp. 'group A'; test: growth inhibition of control SK(-) GAS strain, dose response, counter-screen for streptokinase expression inhibitor project, luminescence, kanamycin, BacTiterGlo, confirmation (AID 1900); type: functional, organism-based
Streptococcus = test: Group A Streptococcus viability loss, dose response, counter-screen for streptokinase expression inhibitor project, luminescence, BacTiterGlo (AID 1915); type: functional, organism-based;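 also: potency for reduction of bacterial viability or growth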
Streptokinase A = biological target: T3, Streptokinase A (Streptococcus pyogenes serotype M1, UniProt P10520); test: S. pyogenes streptokinase expression inhibitors, potency, dose response, plasminogen activation absorbance, OD405 (AID 1914); type: functional, Streptococcus pyogenes M1 GAS;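 also: secreted streptokinase activity via plasminogen activation per viability signal from cell pellet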
T3 sequence (P10520 whole entry): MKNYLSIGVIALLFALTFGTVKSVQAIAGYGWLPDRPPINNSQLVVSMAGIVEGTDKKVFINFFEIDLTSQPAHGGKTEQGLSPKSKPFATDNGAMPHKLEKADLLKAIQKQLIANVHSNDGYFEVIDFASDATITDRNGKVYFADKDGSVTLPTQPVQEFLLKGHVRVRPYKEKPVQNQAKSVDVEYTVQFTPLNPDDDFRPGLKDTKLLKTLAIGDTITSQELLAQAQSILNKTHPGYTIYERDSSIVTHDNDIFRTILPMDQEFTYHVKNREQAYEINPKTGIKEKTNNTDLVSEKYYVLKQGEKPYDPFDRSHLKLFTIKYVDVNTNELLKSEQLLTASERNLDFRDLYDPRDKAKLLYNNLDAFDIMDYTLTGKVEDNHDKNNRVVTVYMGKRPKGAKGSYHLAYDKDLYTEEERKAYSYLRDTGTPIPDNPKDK

[10] = biological target: Luciferin 4-monooxygenase (Photinus pyralis, UniProt P08659); test: firefly luciferase enzyme inhibitors, dose response, biochemical, luminescence (AID 1891)
Chain of Luciferin 4-monooxygenase (P08659 whole entry): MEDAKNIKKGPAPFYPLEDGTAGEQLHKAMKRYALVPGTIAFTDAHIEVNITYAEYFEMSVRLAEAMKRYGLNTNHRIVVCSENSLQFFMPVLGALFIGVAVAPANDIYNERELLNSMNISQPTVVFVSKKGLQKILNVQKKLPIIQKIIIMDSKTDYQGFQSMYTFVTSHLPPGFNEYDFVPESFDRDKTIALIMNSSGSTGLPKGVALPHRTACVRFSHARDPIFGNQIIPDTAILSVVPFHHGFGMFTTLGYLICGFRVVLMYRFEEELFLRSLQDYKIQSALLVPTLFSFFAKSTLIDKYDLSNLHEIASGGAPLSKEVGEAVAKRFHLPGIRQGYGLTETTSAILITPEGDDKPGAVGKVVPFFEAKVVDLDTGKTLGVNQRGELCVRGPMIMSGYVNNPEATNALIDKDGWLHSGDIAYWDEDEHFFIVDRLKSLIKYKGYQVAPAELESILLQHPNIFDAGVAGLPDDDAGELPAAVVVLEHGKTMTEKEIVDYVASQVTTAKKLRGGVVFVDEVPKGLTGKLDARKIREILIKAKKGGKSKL

[11] = Luminescence Cell-Based Dose Confirmation HTS to Identify Inhibitors of Platelet Dense Granule Release. [Related pubchem assays: 1663 (Primary HTS), 1678 (Summary of Project)]; type: functional

Chain of FAD-linked sulfhydryl oxidase ALR (P55789 whole entry): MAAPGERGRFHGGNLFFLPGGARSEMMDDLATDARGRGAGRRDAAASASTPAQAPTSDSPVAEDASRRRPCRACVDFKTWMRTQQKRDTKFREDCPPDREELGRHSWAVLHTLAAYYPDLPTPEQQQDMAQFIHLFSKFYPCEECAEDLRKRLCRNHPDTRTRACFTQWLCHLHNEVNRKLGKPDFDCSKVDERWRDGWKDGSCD

## CN(C)S(=O)(=O)c1ccc(-c2cn3ccccc3n2)cc1
[1]
  AC50: 2.05 µM (active)

## COc1cc(C2OCC3C(c4ccc(OC5OC(CO)C(O)C(O)C5O)c(OC)c4)OCC23)ccc1O (stereo unspecified)
Large T antigen
  IC50: 21.3 µM (active)

## O=C1C=C(c2ccc(Cl)c(C(F)(F)F)c2)C[C@@H](c2ccc(Cl)cc2)C1
[2]
  AC50: 3.41 µM (active)
[3]
  CC50: 12.1 µM (active)

## COc1ccc(N2CSC3=C(C#N)C(c4cc(OC)ccc4OC)CC(=O)N3C2)c(OC)c1 (stereo unspecified)
Large T antigen
  IC50: 63.1 µM (active)

## COc1ccc(OC)c(Nc2nc(N(C)c3ccccc3)nc(N)c2[N+](=O)[O-])c1
[4]
  EC50: > 30 µM (not active)
[5]
  EC50: 0.888 µM (active)
[3]
  CC50: > 50 µM (active)

## COc1ccccc1CNCC(=O)N1CC(=O)Nc2ccccc21
[6]
  IC50: 143 µM (active)

## COC(=O)CN(C#N)c1nc(N(C)C)nc(N(C)C)n1
cells
  IC50: 9.57 µM (active)

## Cc1cc(C=C2C(=O)N(C)C(=S)N(C)C2=O)c(C)n1-c1ccncc1
Large T antigen
  IC50: 50.2 µM (active)

## O=C(NCCCN1CCCC1=O)C(=O)Nc1cccc(F)c1
H4
  EC50: > 120 µM (not active)
[7]
  EC50: 0.233 µM (active)

## CCn1nnc(NC(=O)c2sc3ccccc3c2Cl)n1
cells
  IC50: 19.2 µM (active)

## CN(C)c1ccc(CNc2ccc3c(c2)ncn3C)cc1
[1]
  AC50: 1.78 µM (active)
Large T antigen
  IC50: 22.1 µM (active)

## COc1cc(/C=C/C(=O)OCc2cn3cc(Cl)ccc3n2)ccc1O
[6]
  IC50: 45.5 µM (active)

## COc1cc(/C=C/C(=O)OCC(=O)Nc2ccc3c(c2)OCCO3)ccc1O
[6]
  IC50: 39.8 µM (active)

## COC(=O)c1c(NC(=O)C2CC=CCC2C(=O)O)sc(C(N)=O)c1C (stereo unspecified)
[1]
  AC50: 3.13 µM (active)

## CCOC(=O)c1cc(-c2csc(COc3ccc(Cl)cc3)n2)on1
cells
  IC50: < 0.1 µM (active)

## CCn1c2ccccc2c2nnc(SCc3ccccc3)nc21
[3]
  CC50: 34.6 µM (active)

## O=C(O)c1ccc(NC(=O)c2cn(-c3ccccc3)nc2-c2ccc(Br)cc2)cc1
[3]
  CC50: 21 µM (active)

## CCC(Sc1nc(C)cc(C)n1)C(=O)NC1=NN=C(c2ccc(C)cc2)CS1 (stereo unspecified)
INS1
  AC50: 4.8 µM (active)
[8]
  EC50: 12.2 µM (active)

## CC(=O)Nc1ccc(OC(=O)Cc2ccc(Cl)cc2)cc1
[6]
  IC50: 23.4 µM (active)

## CCOc1ccc(-c2nnc(NC(=O)CCCOc3cccc(C)c3)o2)cc1
cells
  IC50: 5.86 µM (active)

## Cc1ccc(O)c(CCc2ccc(O)cc2)n1
[1]
  AC50: 2.64 µM (active)

## CCN(CC)S(=O)(=O)c1ccc(NCC2COc3ccccc3O2)c([N+](=O)[O-])c1 (stereo unspecified)
[3]
  CC50: 13 µM (active)

## CCOc1cc(/C=C(\C#N)C(=O)NCC2CCCO2)ccc1O (stereo unspecified)
[6]
  IC50: 41.5 µM (active)

## CCOC(=O)Cc1csc(NC(=O)/C=C/c2ccccc2Cl)n1
[3]
  CC50: 18.9 µM (active)

## CCn1c(=O)c(C(=O)CN(C)Cc2cccc(OC)c2OC)c(N)n(Cc2ccccc2)c1=O
[6]
  IC50: 83.9 µM (active)

## Cc1ccc(N2NC(=O)/C(=C/C=C/c3ccco3)C2=O)cc1C
cells
  IC50: 13 µM (active)

## CC(=O)O[C@H]1C[C@@]2(C)[C@@H](C[C@@H](O)[C@H]3[C@@]4(C)CC[C@@H](O)[C@@H](C)[C@@H]4CC[C@@]32C)/C1=C(/CCC=C(C)C)C(=O)O
Large T antigen
  IC50: 31.6 µM (active)

## COC(=O)COc1ccc(-c2nn(C)c(=O)c3ccccc23)cc1
cells
  IC50: 2.56 µM (active)

## O=C(Nc1nc(=O)c2ccccc2s1)c1ccc(F)cc1
H4
  EC50: > 120 µM (not active)
[7]
  EC50: 0.107 µM (active)

## CNc1nc(-c2ccc3c(c2)CCN3C(=O)c2cccc(F)c2)cs1
H4
  EC50: 4.2 µM (active)
[7]
  EC50: 1.41 µM (active)

## NNC(=O)c1sc(-c2ccc(Cl)cc2)cc1N
[1]
  AC50: 2.39 µM (active)

## O=C(CN1CCN(c2ccccc2)CC1)Nc1ccccc1Cl
[1]
  AC50: 6.68 µM (active)

## COc1cc(NS(=O)(=O)c2ccc(NC(=O)NC3CCCCC3)cc2)nc(OC)n1
[1]
  AC50: 3.49 µM (active)

## COc1ccc(NC(S)=NCC2CCN(c3ccc(OC)cc3)C2)cc1 (stereo unspecified)
[6]
  IC50: 39.4 µM (active)

## Cc1cccc(NC(=O)CC2Nc3cccc4cccc(c34)NC2=O)c1 (stereo unspecified)
Cytochrome P450 2C9
  AC50: 12.6 µM (inconclusive)
[3]
  CC50: > 50 µM (active)

## Oc1c2c(nc3cc(-c4cccc(Cl)c4)nn13)CCCC2
[3]
  CC50: 39.3 µM (active)

## CCOC(=O)c1cc(-c2cccs2)nc2c1c(C)nn2-c1ccccn1
[9]
  EC50: 13.1 µM (active)
Streptococcus
  EC50: 21.6 µM (active)
[2]
  AC50: 8.5 µM (active)
[3]
  CC50: 16.4 µM (active)
Streptokinase A
  EC50: 122 µM (active)

## O=C(COc1ccc(-c2ccccc2)cc1)Nc1cccnc1
cells
  IC50: 4.39 µM (active)

## Cc1cccc(-n2c(=O)c3ccccc3n3c(S)nnc23)c1C
[6]
  IC50: 40.7 µM (active)

## CC(=O)c1cccc(Oc2cc(NN3CCCCC3)c([N+](=O)[O-])cc2[N+](=O)[O-])c1
[1]
  AC50: 0.471 µM (active)

## COc1cccc2cc(C(=O)NCc3ccc(F)cc3)c(=N)oc12
cells
  IC50: > 50 µM (active)

## Cc1csc(/C(=N/OC(=O)c2ccco2)C(N)=O)n1
[1]
  AC50: 0.252 µM (active)

## COc1cc(/C=N/NC(=O)c2ccc3[nH]cnc3c2)ccc1O
Large T antigen
  IC50: 7.38 µM (active)

## COc1cc(/C(C)=N/NC(=O)CSc2nnc(C)s2)ccc1O
Large T antigen
  IC50: 24.2 µM (active)

## COc1cc(/C=N/NC(=O)c2nonc2C)ccc1O
[10]
  EC50: 23.5 µM (active)
[6]
  IC50: 28.8 µM (active)
[11]
  EC50: 4.42 µM (active)

## CCSc1ncc(/C=N/Nc2ccc([N+](=O)[O-])cc2)n1C
H4
  EC50: 0.793 µM (active)
